Data from US5750754A, “Heterocyclic compounds” (Zeneca Limited, priority 1993, dated 1998).
Where a name gives a salt, the structure may show the parent alone.

How the values were obtained:
[1] = molecular target: T1, purified human platelet fibrinogen receptor (GPIIb/IIIa) (Homo sapiens, UniProt P05106+P08514); test: Test (b): GPIIb/IIIa ELISA, inhibition of biotinylated fibrinogen binding; details: purified human platelet GPIIb/IIIa, ELISA; read-out: Test (b): pIC50 (-log(IC50)), 50% inhibition of biotinylated fibrinogen binding to GPIIb/IIIa (converted)
T1 construct: is isolated from human platelet lysates; from tissue
T1 sequence (P08514 32-887 limits assumed): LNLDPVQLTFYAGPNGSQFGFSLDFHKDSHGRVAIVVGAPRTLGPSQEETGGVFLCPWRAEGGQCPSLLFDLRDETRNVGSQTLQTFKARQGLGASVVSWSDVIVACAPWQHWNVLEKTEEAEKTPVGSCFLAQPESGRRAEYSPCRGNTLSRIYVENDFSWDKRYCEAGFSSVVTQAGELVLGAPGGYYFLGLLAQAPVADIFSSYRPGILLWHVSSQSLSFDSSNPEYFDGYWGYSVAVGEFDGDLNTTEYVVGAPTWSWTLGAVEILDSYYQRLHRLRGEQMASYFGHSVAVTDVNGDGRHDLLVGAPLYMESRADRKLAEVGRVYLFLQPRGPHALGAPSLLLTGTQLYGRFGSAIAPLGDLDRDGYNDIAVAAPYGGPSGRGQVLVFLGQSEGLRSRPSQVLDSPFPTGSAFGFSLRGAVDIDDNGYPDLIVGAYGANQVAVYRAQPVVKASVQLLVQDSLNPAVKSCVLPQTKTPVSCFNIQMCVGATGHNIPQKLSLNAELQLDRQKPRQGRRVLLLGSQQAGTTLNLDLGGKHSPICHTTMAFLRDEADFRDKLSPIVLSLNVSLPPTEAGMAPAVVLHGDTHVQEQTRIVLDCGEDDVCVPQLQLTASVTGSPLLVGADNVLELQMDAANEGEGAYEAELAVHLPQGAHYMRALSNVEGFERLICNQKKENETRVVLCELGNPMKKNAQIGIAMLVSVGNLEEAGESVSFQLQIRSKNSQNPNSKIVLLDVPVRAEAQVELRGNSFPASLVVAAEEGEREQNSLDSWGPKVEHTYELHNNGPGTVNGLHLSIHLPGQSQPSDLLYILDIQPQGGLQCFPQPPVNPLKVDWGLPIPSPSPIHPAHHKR
T1 sequence (P08514 891-1039 limits assumed): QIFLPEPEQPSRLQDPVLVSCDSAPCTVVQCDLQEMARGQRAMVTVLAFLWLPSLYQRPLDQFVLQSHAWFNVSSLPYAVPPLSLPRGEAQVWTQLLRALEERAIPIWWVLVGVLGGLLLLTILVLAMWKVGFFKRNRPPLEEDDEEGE
T1 sequence (P05106 27-788): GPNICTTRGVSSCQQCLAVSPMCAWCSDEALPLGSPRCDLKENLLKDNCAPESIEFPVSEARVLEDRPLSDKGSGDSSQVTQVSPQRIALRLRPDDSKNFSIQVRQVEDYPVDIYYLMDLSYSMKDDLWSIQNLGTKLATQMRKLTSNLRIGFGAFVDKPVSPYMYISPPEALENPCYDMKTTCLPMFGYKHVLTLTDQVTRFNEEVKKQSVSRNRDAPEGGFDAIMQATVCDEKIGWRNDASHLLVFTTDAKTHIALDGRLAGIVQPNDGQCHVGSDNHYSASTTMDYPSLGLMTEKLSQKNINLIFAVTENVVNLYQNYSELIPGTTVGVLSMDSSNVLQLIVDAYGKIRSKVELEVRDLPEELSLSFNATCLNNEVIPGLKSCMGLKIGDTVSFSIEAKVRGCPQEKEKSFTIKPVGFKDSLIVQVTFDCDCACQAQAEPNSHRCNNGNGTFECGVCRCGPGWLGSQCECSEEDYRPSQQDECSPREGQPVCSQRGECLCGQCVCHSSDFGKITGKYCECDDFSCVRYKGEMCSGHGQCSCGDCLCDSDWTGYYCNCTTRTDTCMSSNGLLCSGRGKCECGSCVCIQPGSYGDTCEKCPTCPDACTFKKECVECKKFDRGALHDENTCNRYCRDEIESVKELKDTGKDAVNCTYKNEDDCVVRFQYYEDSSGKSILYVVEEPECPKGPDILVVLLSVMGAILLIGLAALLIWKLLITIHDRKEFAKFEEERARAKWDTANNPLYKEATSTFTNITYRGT
Description: (i) Preparation of human platelet lysates.
Platelet rich plasma (PRP) is harvested by centrifugation (1000 rpm, 15 mins) of whole blood anticoaoulated with acid citrate dextrose (trisodium citrate 85 mM, citric acid 70 mM, d-glucose 110 mM) 1 part to 6 parts blood. Prostacyclin (PGI2, 1 μM) is added to the PRP before centrifugation (2400 pm, 15 mins) and the resulting pellet is resuspended in modified Tyrodes' solution (NaCl 130 mM, KCl 26 mM, NaHCO3 12 mM, NaH2 PO4 0.5 mM, MgCl2 1 mM, CaCl2 20 mM, Glucose 12 mM, HEPES 5 mM) containing bovine serum albumin 3.5 g/L, PGI2 1 μM and hirudin 0.5 U/ml. The platelet suspension is centrifuged (2400 rpm, 15 mins) and the resultant pellet resuspended in 500 μl of lysis buffer (octyl glucoside 50 mM, HEPES 10 mM, NaCl 150 mM, CaCl2 1 mM, MgCl2 1 mM, PMSF 1 mM, NEM 10 mM, leupeptin 0.1 mM), agitated at 4° C. for 15 minutes then centrifuged at 24000 rpm, 15 mins. The supernatant is stored at 4° C. and the pellet re-suspended in 500 μl of lysis buffer. The centrifugation process is repeated a further 3 tlimes, the pooled supernatants being stored at -70° C.
(ii) Receptor purification.
GP Ilb/Ila is isolated from human platelet lysates using a 2 ml peptide (KYGRGDS) coupled CNBr activated Sepharose affinity column. A 1.5 ml volume of platelet lysate is placed on the column and allowed to stand overnight at 4° C. Buffer (30 mls, octyl gluicoside 25 mM, HEPES 10 mM, NaCl 150 mM, CaCl2 1 mM, MgCl2 1 mM, PMSF 1 mM, NEM 10 mM, leupeptin 0.1 mM) is passed through the column and 2 ml fractions are collected throughout. GPIIb/IIIa is eluted with 12 mls of buffer containing HHLGGAKQAGDV (2 mg/ml, pH 7.5), the column is washed using 4 mls buffer and the remaining GPIIb/IIIa eluted using 12 mls buffer containing GRGDSPG (1 mg/ml pH 7.5). The column is finally washed using 20 mls of buffer and can be used for up to three such preparations. Fractions containing FGPIIb/IIIa are identified using gel electrophoresis and immunoblotting, pooled and stored at -70° C.
96 well microtitre plates are coated with 100 μl purified human platelet fibrinogen receptor (GPIIb/IIIa) diluted in coating buffer (Tris-HCl 20 mM, NaCl 150 mM, CaCl2 1 mM, pH 7.4) and left overnight at 4° C. The plates are washed using washing buffer (Tris-HCl 50 mM, NaCl 100 mM, CaCl2 2 mM, pH 7.4) and non-specific binding, blocked by the addition of 200 μl 2% BSA (2 hours, 30° C.). The plates are washed prior to incubation (2 hours, 30° C.) with 100 μl biotinylated fibrinogen ([…]) containing either vehicle or test compound. The plates are washed, incubated with streptavidin (5 μg/ml, 1 hour, ambient temperature), then washed again before the addition of 100 μl biotinylated horse radish peroxidase (0.1 μg/ml, 1 hour, ambient temperature). The plates are then washed and equal volumes of peroxidase substrate (3, 5, tetramethyl benzidine 0.4 g/l) and H2 O2 (0.02%) are mixed together immediately before addition of 150 μl to each well. Colour is allowed to develop for 10-15 mins before optical densities are read at 650 nm.
The concentration of compound required to cause 50% inhibition of biotinylated fibrinogen binding, is calculated and expressed as a pIC50 (-log(IC50)).

[2] = molecular target: T2, human, citrated, platelet-rich plasma (Homo sapiens, UniProt P05106+P08514); test: Test (a): inhibition of ADP stimulated platelet aggregation (Born); type: cell-based; details: ADP induced aggregation of human platelet-rich plasma; read-out: Test (a): pA2 value indicating potency of platelet aggregation inhibition (converted)
T2 construct: aggregating human, citrated, platelet-rich plasma; endogenous in cells; host or cells: human platelets in citrated platelet-rich plasma
T2 sequence (P08514 32-887 limits assumed): as the sequence (P08514 32-887 limits assumed) above
T2 sequence (P08514 891-1039 limits assumed): as the sequence (P08514 891-1039 limits assumed) above
T2 sequence (P05106 27-788): as the sequence (P05106 27-788) above
Method in brief: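 pA2 calculated by comparing ADP EC50-type (50% response) values in presence and absence of compound, averaged across concentrations (generally 10-^5 M to 10-^10 M). Aggregation (Born) induced by ADP in citrated human platelet-rich plasma, giving dose-response curves.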

Row | IC50 [1] [nM] | Kb [2] [nM] | SMILES
1 | 3160 | 39800 | COC(=O)COc1ccc(C(=O)CN2CCN(c3ccnc4ccccc34)CC2)cc1 [Example 43, Methyl 4-[2-[4-(4-quinolinyl)piperazin-1-yl]acetyl]phenoxyacetate]
2 | 100 | 10000 | O=C(O)COc1ccc(C(=O)CN2CCN(c3ccnc4ccccc34)CC2)cc1 [Example 44, 4-[2-[4-(4-Quinolinyl)piperazin-1-yl]acetyl]phenoxyacetic acid trifluoroacetate salt]
3 | 794 | 3980 | COC(=O)COc1ccc(C(=O)CN2CCN(c3ccnc4c3CCCC4)CC2)cc1 [Example 45, Methyl 4-[2-[4-(5,6,7,8-tetrahydro-4-quinolinyl)piperazin-1-yl]-acetyl]phenoxyacetate]
4 | 25.1 | 1000 | O=C(O)COc1ccc(C(=O)CN2CCN(c3ccnc4c3CCCC4)CC2)cc1 [Example 46, 4-[2-[4-(5,6,7,8-Tetrahydro-4-quinolinyl)piperazin-1-yl]acetyl]phenoxyacetic acid]
5 | 39800 | 6310 | COC(=O)COc1ccc(C(=O)CN2CCN(c3ccncn3)CC2)cc1 [Example 47, Methyl 4-[2-[4-(4-pyrimidinyl)piperazin-1-yl]acetyl]phenoxyacetate]
6 | 251 | 10000 | O=C(O)COc1ccc(C(=O)CN2CCN(c3ccncn3)CC2)cc1 [Example 48, 4-[2-[4-(4-Pyrimidinyl)piperazin-1-yl]acetyl]phenoxyacetic acid]
7 | 6.31 | 79.4 | O=C(O)COc1ccc2c(=O)c(N3CCN(c4ccncc4)CC3)cn(Cc3ccccc3)c2c1 [Example 49, [1-Benzyl-3-[4-(4-pyridyl)piperazin-1-yl]-4-quinolon-7-yl]oxyacetic acid trifluoroacetate salt]
8 | > 100000 | 794 to 1000 | CCOC(=O)CCCOc1ccc(N2CCN(c3ccncc3)CC2)cc1 [Example 50, Ethyl 4-[4-[4-(4-pyridyl)piperazin-1-yl]phenoxy]butyrate]
9 | 3.98 to 25.1 | 12.6 to 100 | O=C(O)CCCOc1ccc(N2CCN(c3ccncc3)CC2)cc1 [Example 51, 4-[4-[4-(4-Pyridyl)piperazin-1-yl]phenoxy]butyric acid]
10 | > 100000 | 10000 | CCOC(=O)CCCCOc1ccc(N2CCN(c3ccncc3)CC2)cc1 [Example 52]
11 | 1260 | 1580 | O=C(O)CCCCOc1ccc(N2CCN(c3ccncc3)CC2)cc1 [Example 53, 5-[4-[4-(4-Pyridyl)piperazin-1-yl]phenoxy]pentanoic acid]
12 | > 100000 | 15800 | CCOC(=O)C=CCOc1ccc(N2CCN(c3ccncc3)CC2)cc1 [Example 54, Ethyl 4-[4-(4-pyridyl)piperazin-1-yl]phenoxycrotonate]
13 | 15800 | 31600 | O=C(O)CC(NC(=O)c1cccc(CN2CCN(c3ccncc3)CC2)c1)c1ccccc1 (stereo not drawn) [Example 55, 3-[3-[4-(4-Pyridyl)piperazin-1-ylmethyl]]benzamido-3-phenylpropionic acid]
14 | 15800 | 3160 | COC(=O)CCNC(=O)c1ccc(N2CCN(c3ccncc3)CC2)cc1 [Example 56, Methyl 3-[4-[4-(4-pyridyl)piperazin-1-yl]]benzaminopropionate]
15 | 25.1 | 25.1 | O=C(O)CCNC(=O)c1ccc(N2CCN(c3ccncc3)CC2)cc1 [Example 57, 3-[4-[4-(4-Pyridyl)piperazin-1-yl]]benzamidopropionic acid]
16 | 39800 | 3160 | COC(=O)CC(NC(=O)c1ccc(N2CCN(c3ccncc3)CC2)cc1)c1ccccc1 (stereo not drawn) [Example 58, Methyl 3-[4-[4-(4-pyridyl)piperazin-1-yl]benzamido]-3-phenylpropionate]
17 | 31.6 | 63.1 | O=C(O)CC(NC(=O)c1ccc(N2CCN(c3ccncc3)CC2)cc1)c1ccccc1 (stereo not drawn) [Example 59, 3-[4-[4-(4-Pyridy)piperazin-1-yl]benzamido]-3-phenylpropionic acid]
18 | 15800 | 10000 | COC(=O)CC(C)NC(=O)c1ccc(N2CCN(c3ccncc3)CC2)cc1 (stereo not drawn) [Example 60, Methyl 3-[4-[4-(4-pyridyl)piperazin-1-yl]benzamido]butyrate]
19 | 200 | 31.6 | COC(=O)COc1ccc(C(=O)CN2CCN(c3ccncc3)CC2=O)cc1 [Example 61, Methyl 4-[2-[4-(4-pyridyl)piperazin-2-one-1-yl]acetyl]phenoxyacetate]
20 | 7.94 | 2.51 to 12.6 | O=C(O)COc1ccc(C(=O)CN2CCN(c3ccncc3)CC2=O)cc1 [Example 62, 4-[2-[4-(4-Pyridyl)piperazin-2-one-1-yl]acetyl]phenoxyacetic acid]
21 | 316 | 126 | COC(=O)COc1ccc(NC(=O)N2CCN(c3ccncc3)CC2)cc1 [Example 63, Methyl 4-[[4-(4-pyridyl)piperazin-1-yl]carboxamido]phenoxy acetate]
22 | 20 | 31.6 | O=C(O)COc1ccc(NC(=O)N2CCN(c3ccncc3)CC2)cc1 [Example 64, 4-[[4-(4-Pyridyl)piperazin-1-yl]carboxamido]phenoxyacetic acid]
23 | 2510 | 6310 | CCn1cc(C(=O)O)c(=O)c2ccc(N3CCN(c4ccncc4)CC3)cc21 [Example 65, Ethyl-4-[4-(4-pyridyl)piperazin-1-yl]-4-quinolon-3-ylcarboxylic acid]
24 | 3980 | 12600 | COC(=O)CCNC(=O)c1ccc(N2CCN(c3ccncc3)CC2)nc1 [Example 69, Methyl 3-[6-[4-(4-pyridyl)piperazin-1-yl]pyrid-3-ylcarboxamido]propionate]
25 | 15.8 | 79.4 | O=C(O)CCNC(=O)c1ccc(N2CCN(c3ccncc3)CC2)nc1 [Example 70, 3-[6-[4-(4-Pyridyl)piperazin-1-yl]pyrid-3-ylcarboxamido]propionic acid]
26 | 39800 | 12600 | O=C(O)COc1ccc2nccc(N3CCN(c4ccncc4)CC3)c2c1 [Example 71, 4-[[4-(4-Pyridyl)piperazin-1-yl]quinolin-6-yl]oxyacetic acid]
27 | 63.1 | 501 | O=C(O)COc1ccc2nc(N3CCN(c4ccncc4)CC3)ccc2c1 [Example 73, 2-[4-(4-Pyridyl)piperazin-1-yl]quinolin-6-yloxyacetic acid]
28 | 2000 | 10000 | O=C(O)CCNC(=O)c1cccc(N2CCN(c3ccncc3)CC2)n1 [Example 74, 3-[6-[4-(4-Pyridyl)piperazin-1-yl]pyrid-2-yl]carboxamidopropionic acid]
29 | 3980 | 31600 | CN(Cc1ccc(-c2ccc(OCC(=O)O)cc2)cc1)c1ccncc1 [Example 75, 4-[4'-[N-Methyl-N-(4-pyridyl)]aminomethyl]biphenyloxyacetic acid]
30 | 1260 | 31600 | O=C(O)COc1ccc2c(CN3CCN(c4ccncc4)CC3)cccc2c1 [Example 76, 5-[[4-(4-Pyridyl)piperazin-1-yl]methylene]naphth-2-yloxyacetic acid]
